Patent publication US20230126310A1 (priority 2020, published 2023)
Where a name gives a salt, the structure may show the parent alone. Read-outs that look alike come from different tables or passages of the source.

Legend:
SARS-CoV-2 [1] = conditions: for % Inh (% inhibition of virus infection): comparative experiments, Examples 1 and 2; for % Inh. (% Inhibition of SARS-CoV-2): 10 µM
[2] = Compound cytotoxicity against CaCo-2 cells at 48 hours; format: cell-based, Human; conditions: human, CaCo-2 cells
Method: (§1) The cytotoxicity of the profiled compounds towards CaCo-2 cells at 48 hours was assessed. […] After 48 hours, cytotoxicity was evaluated using both digital phase contrast readout as described above and ATP determination (Cell titre-glo, Promega Corp).

[3] = system: SARS-CoV-2 (BetaCov/Belgium/GHB-03021/2020); test: microbe, parasite or virus in culture; format: cell-based
CaCo-2 cells = test: Compound cytotoxicity against CaCo-2 cells at 48 hours; format: cell-based, Human; conditions: read-out: CC50: concentration of 50% cytotoxicity; Table 5, further results of Examples 1 and 2; mean ± spread
Method: as §1

SARS-CoV-2 [4] = test: microbe, parasite or virus in culture; conditions: Severe acute respiratory syndrome coronavirus 2, Caco-2, 48 h; for inhibition at 10 µM: read-out: % Inh. (% Inhibition of SARS-CoV-2)
[5] = comparative experiments, 48 hours
[6] = Table 5, further results of Examples 1 and 2
[7] = read-out: IC50: concentration of 50% inhibition of virus infection, Table 5, further results of Examples 1 and 2, […]
[8] = Table 5, further results of Examples 1 and 2, mean ± spread

Molecule: N=C(N)c1ccc2cc(OC(=O)c3ccc(N=C(N)N)cc3)ccc2c1 [Nafamostat mesylate]
- % Inh (% inhibition of virus infection) (SARS-CoV-2 [1]): 89.8%
- CC50 at 48 h [2, 5]: > 20000 nM

Molecule: COc1cc2ncnc(Nc3cccc(Br)c3)c2cc1OC.Cl [PD153035 (Hydrochloride)]
- % Inh. (% Inhibition of SARS-CoV-2) (SARS-CoV-2 [1]): 97.2%
- Maximum confluence reached (%) [3]: 54.45%

Molecule: Nc1nccc(-c2c(-c3ccc(F)cc3)ncn2C2CCCCC2)n1 [PF-670462]
- % Inh. (% Inhibition of SARS-CoV-2) (SARS-CoV-2 [1]): 111.6%
- CC50 (CaCo-2 cells): 8240 ± 7870 nM

Molecule: Cn1cc(-c2ccncc2)c(-c2ccc(OCc3ccc4ccccc4n3)cc2)n1 [PF-2545920]
- % Inh. (% Inhibition of SARS-CoV-2) (SARS-CoV-2 [1]): 67.8%
- Maximum confluence reached (%) [3]: 36.73%

Molecule: CCCc1c(-c2ccc(O)cc2)nn(-c2ccc(O)cc2)c1-c1ccc(O)cc1 [PPT]
- % Inh. (% Inhibition of SARS-CoV-2) (SARS-CoV-2 [1]): 71.1%
- Maximum confluence reached (%) [3]: 48.2%
- IC50 ([3]; read-out: IC50): 8300 nM

Molecule: NS(=O)(=O)OC[C@@H]1C[C@@H](n2ccc3c(N[C@H]4CCc5ccccc54)ncnc32)C[C@@H]1O [Pevonedistat hydrochloride]
- % Inh (% inhibition of virus infection) (SARS-CoV-2 [1]): 75.1%
- CC50 at 48 h [2, 5]: 222000 ± 332000 nM

Molecule: Cc1cccc2c1CC[C@H](CN1CCC(c3c(Cl)cccc3Cl)CC1)C[C@@H]2O [SB-612111]
- % Inh. (% Inhibition of SARS-CoV-2) (SARS-CoV-2 [1]): 146.6%
- pIC50: -log10 of IC50 (SARS-CoV-2 [1]; [6]): 6.11
- IC50 (SARS-CoV-2 [1]; [7]): 770 ± 290 nM
- CC50 (CaCo-2 cells): 3670 ± 3210 nM

Molecule: CC[C@@H](C(=O)[C@@H](C)[C@@H](O)[C@H](C)[C@@H]1O[C@@H]([C@@H](CC)C(=O)O)CC[C@@H]1C)[C@H]1O[C@]2(C=C[C@@H](O)[C@]3(CC[C@@](C)([C@H]4CC[C@](O)(CC)[C@H](C)O4)O3)O2)[C@H](C)C[C@@H]1C [Salinomycin (Procoxacin), Salinomycin]
- inhibition at 10 µM (SARS-CoV-2 [4]): 90.2%
- Emax ([3]; Severe acute respiratory syndrome coronavirus 2, 120 h, read-out: Maximum confluence reached (%)): 34.4%

Molecule: C[CH2][Hg][S]c1ccccc1C(=O)[O-].[Na+] [THIMEROSAL]
- IC50 (SARS-CoV-2 [1]): 1770 nM
- pIC50 (SARS-CoV-2 [1]): 5.75
- pIC50: -log10 of IC50 (SARS-CoV-2 [1]): 5.77
- % Inh. (% Inhibition of SARS-CoV-2) (SARS-CoV-2 [1]): 79.4%
- IC50 (SARS-CoV-2 [1]; read-out: IC50: concentration of 50% inhibition of virus infection): 1690 ± 130 nM
- CC50 (CaCo-2 cells): 13500 ± 1230 nM

Molecule: Nc1nc2nc[nH]c2c(=S)[nH]1 [TIOGUANINE]
- % Inh (% inhibition of virus infection) (SARS-CoV-2 [1]): 99.9%
- CC50 at 48 h [2, 5]: 2210 ± 1480 nM

Molecule: CC(C)(C)c1cc(/C=C(\C#N)C(N)=S)cc(C(C)(C)C)c1O [Tyrphostin AG 879 (AG 879), Tyrphostin AG 879]
- IC50 (SARS-CoV-2 [1]): 200 nM
- pIC50 (SARS-CoV-2 [1]): 6.70
- % Inh. (% Inhibition of SARS-CoV-2) (SARS-CoV-2 [1]): 104.2%
- pIC50: -log10 of IC50 (SARS-CoV-2 [1]; [6]): 6.70
- IC50 (SARS-CoV-2 [1]; [7]): 200 ± 10 nM
- CC50 (CaCo-2 cells): 1360 ± 80 nM

Molecule: CCOC(=O)c1ncc2[nH]c3ccc(OCc4ccccc4)cc3c2c1COC.Cl [ZK-93423]
- IC50 (SARS-CoV-2 [1]): 1280 nM
- pIC50 (SARS-CoV-2 [1]): 5.89
- % Inh. (% Inhibition of SARS-CoV-2) (SARS-CoV-2 [1]): 75.1%
- pIC50: -log10 of IC50 (SARS-CoV-2 [1]; [6]): 5.87
- IC50 (SARS-CoV-2 [1]; [7]): 1340 ± 920 nM
- CC50 (CaCo-2 cells): 910 ± 130 nM

Molecule: NC(=O)c1nnn(Cc2cc(Cl)c(C(=O)c3ccc(Cl)cc3)c(Cl)c2)c1N [carboxyamidotriazole]
- % Inh (% inhibition of virus infection) (SARS-CoV-2 [1]): 135.1%
- CC50 at 48 h [2, 5]: 110 ± 40 nM

Molecule: OCCNC1CCCc2c1[nH]c1ccc(-c3ccccc3)cc21 (stereo not drawn) [casin]
- % Inh. (% Inhibition of SARS-CoV-2) (SARS-CoV-2 [1]): 71.2%
- Maximum confluence reached (%) [3]: 50.81%

Molecule: CC1=C(CCC(=O)O)c2cc3[nH]c(cc4nc(cc5[nH]c(cc1n2)c(C)c5C(C)O)C(C)=C4C(C)O)c(C)c3CCC(=O)O (stereo not drawn) [hematoporphyrin]
- inhibition at 10 µM (SARS-CoV-2 [4]): 96.8%
- CC50 at 48 h [2, 8]: 160000 ± 139000 nM

Molecule: COC(=O)C[C@](O)(CCCC(C)(C)O)C(=O)O[C@@H]1C(OC)=C[C@]23CCCN2CCc2cc4c(cc2[C@H]13)OCO4 [homoharringtonine]
- IC50 (SARS-CoV-2 [4]): 2250 nM
- inhibition at 10 µM (SARS-CoV-2 [4]): 154%
- IC50 (SARS-CoV-2 [4]; read-out: pIC50 (converted)): 2240 nM
- CC50 at 48 h [2, 8]: 1720 ± 1890 nM

Molecule: Cc1cccc(C)c1NC(=O)CN1CCN(CCCC(c2ccc(F)cc2)c2ccc(F)cc2)CC1 [lidoflazine]
- IC50 (SARS-CoV-2 [4]): 21300 nM
- inhibition at 10 µM (SARS-CoV-2 [4]): 95.9%
- IC50 (SARS-CoV-2 [4]; read-out: pIC50 (converted)): 21400 nM
- CC50 at 48 h [2, 8]: 31900 ± 11000 nM

Molecule: C[C@@H](c1nc(-c2ccc(C#N)cc2)cs1)[C@](O)(Cn1cncn1)c1ccc(F)cc1F [ravuconazole]
- IC50 (SARS-CoV-2 [4]): 2000 nM
- inhibition at 10 µM (SARS-CoV-2 [4]): 103%
- IC50 (SARS-CoV-2 [4]; read-out: pIC50 (converted)): 2000 nM
- CC50 at 48 h [2, 8]: 12800 ± 840 nM

Molecule: Clc1ccc(Nc2nnc(Cc3ccncc3)c3ccccc23)cc1 [vatalanib]
- IC50 (SARS-CoV-2 [4]): 24400 nM
- inhibition at 10 µM (SARS-CoV-2 [4]): 85.9%
- IC50 (SARS-CoV-2 [4]; read-out: pIC50 (converted)): 24500 nM
- CC50 at 48 h [2, 8]: 64200 ± 57400 nM

Molecule: polidocanol
- pIC50 (SARS-CoV-2 [1]): 6.68
- % Inh. (% Inhibition of SARS-CoV-2) (SARS-CoV-2 [1]): 85.8%
- pIC50: -log10 of IC50 (SARS-CoV-2 [1]; [6]): 6.66
- IC50 (SARS-CoV-2 [1]; [7]): 220 ± 20 nM
- CC50 (CaCo-2 cells): 10300 ± 1620 nM
